Assay [1] concerns cellular H3K36me2 level in multiple myeloma cell line KMS11 (t(4;14)+). Nature of the assay: H3K36me2 cellular FRET assay in KMS11-Par line. Format: cell-based. The settings on record: cellular H3K36me2 level, FRET, read-out: H3K36me2 FRET in KMS11-Par. How it is done: H3K36Me2 Cellular FRET Assay in KMS11-Par Line
Fluorescence Resonance Energy Transfer (FRET) assay was used to test the ability of candidate compound to reduce cellular H3K36me2 level in multiple myeloma cell line KMS11 (t(4;14)+) (Horizon Discovery Ltd.).
Cells were treated with tested compounds at the desired concentration for 48 hours. […] Histone extract was incubated with Eu labeled anti-H3K36me2 antibody (abcam #ab ab9049) and d2 labeled anti-H3 antibody (abcam #ab1791) for 1 hour at room temperature. A Eu labeled anti-H3 antibody (CISBIO #64CUS000) was used for loading control. The abundancy of H3K36me2 or total H3 was measured by fluorescence signal on Perkin Elmer Envison machine.

A further assay concerns the target NSD2 [1-1365] (Homo sapiens (Human), UniProt O96028). Nature of the assay: LC-MS/MS-based NSD2 enzymatic assay (SAH production). Format: biochemical. The settings on record: NSD2 biochemical activity, class symbols; read-out: NSD2 IC50. The gist of the method:
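Full-length NSD2 [1-1365] (8 nM final) with 1 μM SAM and 400 nM mouse-liver nucleosome in Tris pH 8.0 buffer; inhibitor preincubated 20 min with enzyme/SAM before nucleosome addition. Reaction 90 min at room temperature, TFA-quenched; SAH quantified by LC-MS/MS against d4-SAH internal standard and SAH standard curve.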

The mark [2] stands for this setting: Homo sapiens, KMS-11, KMS11-Par line.

Read-outs that look alike come from different tables or passages of the source.

Chain of NSD2 [1-1365] (O96028 whole entry): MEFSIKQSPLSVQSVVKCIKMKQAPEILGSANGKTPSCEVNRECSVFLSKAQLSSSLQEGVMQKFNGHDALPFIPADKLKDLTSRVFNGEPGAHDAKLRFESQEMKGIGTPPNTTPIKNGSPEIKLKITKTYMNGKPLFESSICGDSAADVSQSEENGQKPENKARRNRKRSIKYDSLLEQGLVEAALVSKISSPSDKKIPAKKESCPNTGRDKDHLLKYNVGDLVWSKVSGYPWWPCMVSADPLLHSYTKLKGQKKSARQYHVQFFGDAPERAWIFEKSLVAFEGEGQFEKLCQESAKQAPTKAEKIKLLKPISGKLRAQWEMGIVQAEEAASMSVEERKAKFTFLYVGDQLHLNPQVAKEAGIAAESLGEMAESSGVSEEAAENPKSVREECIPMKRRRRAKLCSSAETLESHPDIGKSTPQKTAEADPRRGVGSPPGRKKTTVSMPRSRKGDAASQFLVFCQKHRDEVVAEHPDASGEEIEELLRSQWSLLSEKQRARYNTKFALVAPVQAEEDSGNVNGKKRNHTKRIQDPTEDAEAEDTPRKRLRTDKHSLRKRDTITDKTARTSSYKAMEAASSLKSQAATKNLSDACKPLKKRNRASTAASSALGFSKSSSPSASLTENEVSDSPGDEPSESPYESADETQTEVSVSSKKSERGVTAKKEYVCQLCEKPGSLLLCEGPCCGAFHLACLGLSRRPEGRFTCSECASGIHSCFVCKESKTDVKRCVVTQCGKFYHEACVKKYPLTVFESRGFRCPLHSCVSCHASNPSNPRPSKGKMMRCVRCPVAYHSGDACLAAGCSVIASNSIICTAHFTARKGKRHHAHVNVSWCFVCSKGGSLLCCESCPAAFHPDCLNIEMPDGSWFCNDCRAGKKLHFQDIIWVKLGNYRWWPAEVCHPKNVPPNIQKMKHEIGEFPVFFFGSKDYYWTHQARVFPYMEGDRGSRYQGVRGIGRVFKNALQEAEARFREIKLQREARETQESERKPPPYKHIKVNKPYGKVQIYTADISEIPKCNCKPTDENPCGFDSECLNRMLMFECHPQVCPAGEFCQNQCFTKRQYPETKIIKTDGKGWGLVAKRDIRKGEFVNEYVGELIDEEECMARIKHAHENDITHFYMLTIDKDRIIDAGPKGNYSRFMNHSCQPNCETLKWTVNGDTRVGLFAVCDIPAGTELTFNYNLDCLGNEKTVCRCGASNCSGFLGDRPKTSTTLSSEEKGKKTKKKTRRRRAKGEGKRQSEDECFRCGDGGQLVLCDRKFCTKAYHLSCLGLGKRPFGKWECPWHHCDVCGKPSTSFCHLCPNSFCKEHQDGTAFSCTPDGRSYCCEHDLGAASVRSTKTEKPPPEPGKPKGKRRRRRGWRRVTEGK

As to `Nc1ncnc2c1ncn2Cc1cc(-c2ccc(F)c(F)c2)ncc1N1CCC[C@](N)(COC2CC2)C1` [Example 22, (R)-9-((5-(3-amino-3-(cyclopropoxymethyl)piperidin-1-yl)-2-(3,4-difluorophenyl)pyridin-4-yl)methyl)-9H-purin-6-amine], the values for the IC50 (in assay [1] (setting [2]); on NSD2 [1-1365]) were 214 nM and 1 to 10 nM, respectively.
With `COC[C@@]1(N)CCCN(c2cnc(-c3ccc(F)c(F)c3)cc2Cn2cnc3c(N)ncnc32)C1` [Example 23, (R)-9-((5-(3-amino-3-(methoxymethyl)piperidin-1-yl)-2-(3,4-difluorophenyl)pyridin-4-yl)methyl)-9H-purin-6-amine], the IC50 in assay [1] (setting [2]) was 160 nM; at NSD2 [1-1365] it was 1 to 10 nM.
The like results for `COC[C@@]1(N)CCCN(c2cnc(-c3cccc(F)c3)cc2Cn2cnc3c(N)ncnc32)C1` [Example 24, (R)-9-((5-(3-amino-3-(methoxymethyl)piperidin-1-yl)-2-(3-fluorophenyl)pyridin-4-yl)methyl)-9H-purin-6-amine] were, in that order, 451 nM and 1 to 10 nM.
Taken in the same sequence, the figures for `COc1ccc(-c2cc(Cn3cnc4c(N)ncnc43)c(N3CCC[C@](N)(COC(C)C)C3)cn2)cc1F` [Example 25, (R)-9-((5-(3-amino-3-(isopropoxymethyl)piperidin-1-yl)-2-(3-fluoro-4-methoxyphenyl)pyridin-4-yl)methyl)-9H-purin-6-amine] were 995 nM and 1 to 10 nM.
Taken in the same sequence, the figures for `COC[C@@]1(N)CCCN(c2cnc(-c3cccc(Cl)c3)cc2Cn2cnc3c(N)ncnc32)C1` [Example 27, (R)-9-((5-(3-amino-3-(methoxymethyl)piperidin-1-yl)-2-(3-chlorophenyl)pyridin-4-yl)methyl)-9H-purin-6-amine] were 501 nM and 1 to 10 nM.
Turning to `COC[C@@]1(N)CCCN(c2cnc(-c3ccc(F)cc3F)cc2Cn2cnc3c(N)ncnc32)C1` [Example 29, (R)-9-((5-(3-amino-3-(methoxymethyl)piperidin-1-yl)-2-(2,4-difluorophenyl)pyridin-4-yl)methyl)-9H-purin-6-amine], the IC50 was 225 nM in assay [1] (setting [2]) and 1 to 10 nM at NSD2 [1-1365].
Take `COC[C@@]1(N)CCCN(c2cnc(-c3ccc(OC)cc3F)cc2Cn2cnc3c(N)ncnc32)C1` [Example 33, (R)-9-((5-(3-amino-3-(methoxymethyl)piperidin-1-yl)-2-(2-fluoro-4-methoxyphenyl)pyridin-4-yl)methyl)-9H-purin-6-amine]: the IC50 in assay [1] (setting [2]) is 1030 nM; at NSD2 [1-1365], 1 to 10 nM.
The like results for `CC(C)OC[C@@]1(N)CCCN(c2cnc(-c3ccc(F)c(F)c3)cc2Cn2cnc3c(N)ncnc32)C1` [Example 34, (R)-9-((5-(3-amino-3-(isopropoxymethyl)piperidin-1-yl)-2-(3,4-difluorophenyl)pyridin-4-yl)methyl)-9H-purin-6-amine] were, in that order, 1030 nM and 1 to 10 nM.
As for `Nc1ncnc2c1ncn2Cc1cc(-c2cccc(F)c2)ncc1N1CCC[C@](N)(COC2CCC2)C1` [Example 35, (R)-9-((5-(3-amino-3-(cyclobutoxymethyl)piperidin-1-yl)-2-(3-fluorophenyl)pyridin-4-yl)methyl)-9H-purin-6-amine], the IC50 in assay [1] (setting [2]) is 610 nM; at NSD2 [1-1365], 1 to 10 nM.
Taken in the same sequence, the figures for `Nc1ncnc2c1ncn2Cc1cc(-c2ccc(F)cc2)ncc1N1CCC[C@](N)(COC2CCC2)C1` [Example 36, (R)-9-((5-(3-amino-3-(cyclobutoxymethyl)piperidin-1-yl)-2-(4-fluorophenyl)pyridin-4-yl)methyl)-9H-purin-6-amine] were 416 nM and 10 to 1000 nM.
For `COC[C@@]1(N)CCCN(c2cnc(-c3ccc(OC)c(F)c3)cc2Cn2cnc3c(N)ncnc32)C1` [Example 38, (R)-9-((5-(3-amino-3-(methoxymethyl)piperidin-1-yl)-2-(3-fluoro-4-methoxyphenyl)pyridin-4-yl)methyl)-9H-purin-6-amine], the IC50 is 721 nM in assay [1] (KMS11-Par line) and 10 to 1000 nM on NSD2 [1-1365].
For the molecule `COc1ccc(-c2cc(Cn3cnc4c(N)ncnc43)c(N3CCC[C@](N)(COCC(F)(F)F)C3)cn2)cc1F` [Example 39, (R)-9-((5-(3-amino-3-((2,2,2-trifluoroethoxy)methyl)piperidin-1-yl)-2-(3-fluoro-4-methoxyphenyl)pyridin-4-yl)methyl)-9H-purin-6-amine], the IC50 was 2560 nM in assay [1] (setting [2]) and 10 to 1000 nM at NSD2 [1-1365].
The like results for `Nc1ncnc2c1ncn2Cc1cc(-c2cccc(F)c2)ncc1N1CCC[C@](N)(COC(F)F)C1` [Example 40, (R)-9-((5-(3-amino-3-((difluoromethoxy)methyl)piperidin-1-yl)-2-(3-fluorophenyl)pyridin-4-yl)methyl)-9H-purin-6-amine] were, in that order, 770 nM and 10 to 1000 nM.
The like results for `Nc1ncnc2c1ncn2Cc1cc(-c2ccc(F)c(F)c2)ncc1N1CCC[C@](N)(COCC(F)(F)F)C1` [Example 43, (R)-9-((5-(3-amino-3-((2,2,2-trifluoroethoxy)methyl)piperidin-1-yl)-2-(3,4-difluorophenyl)pyridin-4-yl)methyl)-9H-purin-6-amine] were, in that order, 1240 nM and 10 to 1000 nM.
Taken in the same sequence, the figures for `Nc1ncnc2c1ncn2Cc1cc(-c2ccc(F)cc2)ncc1N1CCC[C@](N)(COC(F)F)C1` [Example 44, (R)-9-((5-(3-amino-3-((difluoromethoxy)methyl)piperidin-1-yl)-2-(4-fluorophenyl)pyridin-4-yl)methyl)-9H-purin-6-amine] were 1620 nM and 10 to 1000 nM.
`Nc1ncnc2c1ncn2Cc1cc(-c2ccc(F)cc2)ncc1N1CCC[C@](N)(COCC(F)(F)F)C1` [Example 45, (R)-9-((5-(3-amino-3-((2,2,2-trifluoroethoxy)methyl)piperidin-1-yl)-2-(4-fluorophenyl)pyridin-4-yl)methyl)-9H-purin-6-amine]: the IC50 in assay [1] (setting [2]) was 705 nM; on NSD2 [1-1365], 10 to 1000 nM.
Take `COC[C@@]1(N)CCCN(c2cnc(-c3ccc(OC)c(F)c3)cc2Cn2cnc3c(N)ncnc32)C1` [Example 46]: the IC50 in assay [1] (KMS11-Par line) was 315 nM; at NSD2 [1-1365] it was 1 to 10 nM.
For the molecule `Nc1ncnc2c1ncn2Cc1cc(-c2ccc(F)c(F)c2)ncc1N1CCC[C@](N)(Cc2nccs2)C1` [Example 53, (S)-9-((5-(3-amino-3-(thiazol-2-ylmethyl)piperidin-1-yl)-2-(3,4-difluorophenyl)pyridin-4-yl)methyl)-9H-purin-6-amine], the IC50 in assay [1] (setting [2]) is 327 nM; at NSD2 [1-1365], 1 to 10 nM.
The like results for `Nc1ncnc2c1ncn2Cc1cc(-c2cccc(F)c2)ncc1N1CCC[C@](N)(CC(=O)O)C1` [Example 58, (S)-2-(3-amino-1-(4-((6-amino-9H-purin-9-yl)methyl)-6-(3-fluorophenyl)pyridin-3-yl)piperidin-3-yl)acetic acid] were, in that order, 2640 nM and 1 to 10 nM.
The like results for `CN(C)C(=O)C[C@@]1(N)CCCN(c2cnc(-c3ccc(F)c(F)c3)cc2Cn2cnc3c(N)nccc32)C1` [Example 59, (S)-2-(3-amino-1-(4-((4-amino-1H-imidazo[4,5-c]pyridin-1-yl)methyl)-6-(3,4-difluorophenyl)pyridin-3-yl)piperidin-3-yl)-N,N-dimethylacetamide] were, in that order, 33300 nM and 1 to 10 nM.

(Values after patent publication US11420970B1 (NOVARTIS AG, priority 2019, dated 2022).)
